Test results reported in US4719297A, “Acylphosphine compounds and their use as photoinitiators” (priority 1981, dated 1988).
Like-named read-outs stand apart in the source and are kept apart here.

What was measured:
[1] = Hardening activity of UP resin A under UV light, temperature/time curve (Table 2); details: 0.2% compound
Protocol: (§1) To measure the hardening activity, the temperature curve for the unsaturated polyester resin (UP resin) was recorded during exposure to UV light. […] To avoid heat losses during the exposure to UV light, the lid was embedded in rigid expanded polyurethane foam. The UV light source used comprised 5 fluorescent tubes (TLAK 40 W/05 from Philips) side by side, at a distance of 8.5 cm from the UP resin surface.
(§2) The hardening time HT25° C.-T.sbsb.max and the maximum hardening temperature Tmax achieved were obtained, as characteristic parameters for the hardening activity, from the recorded temperature/time curves. The hardening time is the interval in which the sample temperature increases from 25° C. to Tmax.
(§3) The Examples and Comparative Examples were carried out using the following unsaturated polyester resins:
Resin A was a 65% strength solution, in styrene, of an unsaturated polyester of maleic acid, o-phthalic acid, ethylene glycol and propylene 1,2-glycol in the molar ratio of 1:2:2.3:0.70, the solution being stabilized with 0.01% of hydroquinone.
(§4) The hardening activity of the novel compounds 1 to 16 (cf. Table 1) was compared with the properties of the following compounds: […]

[2] = Shelf life of UP resin A containing a photoinitiator, stored at 60° C. (Table 3); assay type: physicochemical; details: 0.2% initiator, dark
Protocol: (§5) To test the shelf life, 6.6 ml of each of the UP resins A, B and C (cf. Example 5) with an initiator content of 0.2% were introduced into brown sample bottles, and the closed bottles were stored at 60° C. At intervals of about 12 hours, the bottles were turned to determine whether gel particles had formed. As a measure of the shelf life, Table 3 gives the maximum storage time at which gel particles were still not observed.
(§6) In addition to the comparative compounds I, II and III, compound V below was also tested: V 2,4,6-trimethylbenzoyldiphenylphosphine oxide as described in U.S. Pat. No. 4,265,723.
(§7) The numbering scheme of the compounds in Table 3 is based on that of Table 1.

[3] = Hardening activity of UP resin C under UV light, temperature/time curve (Table 2); details: 0.2% compound
Protocol: as §1, §2, §3
Resin C was a 66% strength solution, in styrene, of an unsaturated polyester of maleic acid, o-phthalic acid and propylene 1,2-glycol in the molar ratio of 1:0.5:1.5, the solution being stabilized with 0.01% of hydroquinone.
as §4

[4] = Hardening activity of UP resin B under UV light, temperature/time curve (Table 2); details: 0.2% compound
Protocol: as §1, §2, §3
Resin B was a 67% strength solution, in styrene, of an unsaturated polyester of maleic acid, tetrahydrophthalic acid and diethylene glycol in the molar ratio of 1:0.5:1.5, the solution being stabilized with 0.01% of hydroquinone.
as §4

[5] = Hardening activity in UP resins, overall comparison
Protocol: as §1, §2, §3, §4

[6] = Shelf life of UP resin C containing a photoinitiator, stored at 60° C. (Table 3); assay type: physicochemical; details: 0.2% initiator, dark
Protocol: as §5, §6, §7

[7] = Shelf life of UP resin B containing a photoinitiator, stored at 60° C. (Table 3); assay type: physicochemical; details: 0.2% initiator, dark
Protocol: as §5, §6, §7

[8] = Hardening rate of UV-exposed finish by Konig pendulum method (DIN 53,157) (Table 4); details: for Damping of pendulum: 2 parts photoinitiator
Protocol: An unsaturated polyester was prepared by esterifying 143 parts of tetrahydrophthalic anhydride and 175 parts of maleic anhydride with 260 parts of diethylene glycol. 0.01% of hydroquinone was added, and thereafter a 64% strength solution of the polyester in styrene was prepared (solution D).
For the UV hardening experiments, 10 parts of styrene and 2 parts of the photoinitiator were added to 100 parts of solution D, and the finish was applied to photographic paper on a hardboard base by means of a film spreader (slotwidth 200 μm)
The film was dried in air for about 1 minute and then exposed to light from a 30 watt high pressure mercury vapor lamp of 1 cm arc length (Philips HTQ 7) located 15 cm above the object.
The hardening rate was determined by the Konig pendulum method (DIN 53,157), and is given in Table 4 together with the color measurements carried out on the hardened films.
The numbering scheme for the photoinitiators is based on that of Table 1 and Example 6.

[9] = assay type: physicochemical; details: 80° C., closed ampoule
Protocol: 294 parts of partially hydrolyzed polyvinyl acetate (degree of hydrolysis 82 mole %, average degree of polymerization 500) were dissolved in 294 parts of demineralized water at 90° C. by stirring the mixture for several hours. The solution was cooled to 70° C., and therafter 20 parts of 1,1,1-trimethylolpropane triacrylate, 1,0 part of 2,6-di-tert.-butyl-p-cresol and the amount of photoinitiator given in table 6, dissolved in 230 parts of 2-hydroxyethyl methacrylate, were added, with stirring. The homogeneous viscous solution was filtered, and dehydrated and degassed under reduced pressure. A 550 μm thick, nontacky layer was obtained by applying the solution onto steel sheet provided with an adhesive, and drying the layer for 24 hours at room temperature. The printing plate was pre-exposed for 2 seconds and thereafter exposed inagewise, through a negative, to light from a commercial 5 kW exposure unit for the times given in table 6.
The thermal stability of the photosensitive solutions was determined by storing a sample in a closed ampoule at 80° C. In comparison with compound V, the novel photoinitiators improved the stability of the photosensitive mixture by a factor of 2 (see Table 6), with otherwise very similar behavior.

[10] = Photopolymerization of monomer emulsion, properties of resulting polymer dispersions (Table 5); details: for Fikentscher K value / Residual monomers, ethyl acrylate / Residual monomers, methyl acrylate / Solids content: 60 min exposure
Protocol: A monomer emulsion was prepared from 50 parts of methyl acrylate, 50 parts of ethyl acrylate, 1.3 parts of a 40% strength C15 -paraffin sulfonate, 1.3 parts of an adduct of isooctylphenol with 25 units of ethylene oxide (20% strength) and 210 parts of water in a conventional mixing unit.
This emulsion was introduced into a 1 l glass flask provided with an internal thermometer and a stirrer, and was freed from oxygen by twice evacuating the flask and gassing the emulsion with nitrogen. X parts of the photoinitiator in 6.7 parts of water were added, and the reaction vessel was then exposed for 60 minutes to light from a high pressure mercury vapor lamp of Type HQL/R 400 W from Osram, located 30 cm above the vessel. The beginning of polymerization was evident from an increase in the temperature. The amounts of photoinitiator employed and the properties of the resulting polymer dispersions are summerized in Table 5, photoinitiator 4 (cf. Table 1) being compared with photoinitiator VI (described in U.S. Pat. No. 4.257,859).

[11] = Shelf life of resins containing the compounds, overall comparison; assay type: physicochemical; details: Table 3, in words
Protocol: as §5, §6

[12] = Minimum exposure time for faultless reproduction of the 3% tonality on photopolymerizable printing plate (Table 7); details: 2 parts photoinitiator; UV about 3,300 μW/cm^2
Protocol: 60 parts by weight of a 1:1:1 copolyamide consisting of PA-6, PA-6.6 and PA-6.13, 30 parts by weight of ethylene glycol bis-(N-methylolacrylamide) ether, 10 parts by weight of benzenesulfonic acid N-(n-butyl)-amide, 150 parts by weight of methanol, 20 parts by weight of water, 0.02 part by weight of a chromium complex dye (CI No. 12,195), 0.3 part by weight of potassium N-nitrosocyclohexylhydroxylamine and 2 parts by weight of the photoinitiator given in Table 7 were dissolved at about 70° C. The photopolymerizable material was brought to a solids content of about 65% by distilling off part of the solvent and was then cast, at 60° C., on to a strip of steel sheet provided with an adhesive, and drying was effected in a drying oven for about 2 hours at 80° C. The resulting photopolymerizable printing plate contained a 0.5 mm thick layer with a solids content of about 95%.
Using a test negative which had, inter alia, 54 screen lines, per centimeter, of 3% tonality, the plate was exposed to a UV light intensity of about 3,300 μW/cm^2 on a flat-plate exposure unit equipped with superactinic fluorescent tubes. The unexposed parts of the plate which were protected from the UV light by the opaque image elements of the negative were then washed out in a spray washer for 5 minutes at 30° C. and under a spray pressure of 5 bar, using an ethanol/water mixture containing 80% of ethanol. The plate was thereafter dried for 6 minutes at 110° C. The minimum exposure time required for faultless reproduction of the 3% tonality was measured, and the results for various photoinitiators are summarized in Table 7.

| SMILES | hardening time HT 25°-Tmax [1] | maximum hardening temperature Tmax [1] [°C] | Shelf life [2] [h] | hardening time HT 25°-Tmax [3] | maximum hardening temperature Tmax [3] [°C] | hardening time HT 25°-Tmax [4] | maximum hardening temperature Tmax [4] [°C] | Shelf life [6] [h] | Shelf life [7] [h] | Damping of pendulum ([8]; exposure time 5 s) | Damping of pendulum ([8]; exposure time 10 s) | Damping of pendulum ([8]; exposure time 15 s) | Damping of pendulum ([8]; exposure time 20 s) | Damping of pendulum ([8]; exposure time 25 s) | Minimum exposure time required for reproducing the 3% tonality [12] [s] | other results |
| --- | --- | --- | --- | --- | --- | --- | --- | --- | --- | --- | --- | --- | --- | --- | --- | --- |
| COP(=O)(C(=O)c1c(C)cc(C)cc1C)c1ccccc1 (centres unmarked) [I, methyl 2,4,6-trimethybenzoylphenylphosphinate, reference compound] | 7/45 | 114 | 180 | 6/53 | 123 | 5/23 | 127 | 180 | 155 | – | – | – | – | – | – | hardening activity compared with the novel compounds ([5]; see Example 5, in words): substantially less active hardener |
| Cc1cc(C)c(C(=O)P(=O)(O)c2ccccc2)c(C)c1 [Compound 12, Methyldiethanolammonium 2,4,6-trimethylbenzoylphenylphosphinate] | 6/15 | 116 | – | 5/23 | 123 | 5/08 | 129 | – | – | 71 | 92 | 112 | 122 | 130 | – | hardening activity compared with compound V ([8]; Table 4, in words): substantially more active hardener; Stability ([9]; 7 parts of compound): 28 h |
| Cc1cc(C)c(C(=O)P(=O)([O-])c2ccccc2)c(C)c1.[Na+] [Compound 4, Sodium 2,4,6-trimethylbenzoylphenylphosphinate] | 5/53 | 117 | 190 | 5/23 | 122 | 4/37 | 125 | – | – | – | – | – | – | – | 115 | Fikentscher K value ([10]; 0.04 parts X employed): 156.8; Residual monomers, ethyl acrylate ([10]; 0.04 parts X employed): 0.019%; Residual monomers, methyl acrylate ([10]; 0.04 parts X employed): 0.051%; Solids content ([10]; 0.04 parts X employed): 31.3%; Fikentscher K value ([10]; 1.7 parts X employed): 146.6; Residual monomers, ethyl acrylate ([10]; 1.7 parts X employed): < 0.005%; Residual monomers, methyl acrylate ([10]; 1.7 parts X employed): 0.005%; Solids content ([10]; 1.7 parts X employed): 31.4%; activity compared with photoinitiator VI ([10]; same K value of dispersions, in words): higher activity; content of residual monomers compared with photoinitiator VI ([10]; same starting concentration, in words): substantially lower content of residual monomers; initiation of photopolymerization at very low starting concentrations ([10]; very low starting concentrations, in words): permits photopolymerization even at very low starting concentrations; Stability ([9]; 6 parts of compound): 34 h; shelf life of resins compared with compounds II, III and V [11]: substantially superior; shelf life of resins compared with resins containing I [11]: not significantly different |
| Cc1cc(C)c(C(=O)P(=O)(c2ccccc2)c2ccccc2)c(C)c1 [V, 2,4,6-trimethylbenzoyldiphenylphosphine oxide, reference compound] | – | – | 140 | – | – | – | – | 120 | 140 | 43 | 66 | 84 | 102 | 112 | 190 | Stability ([9]; 4 parts of compound): 15 h |
| COP(=O)([O-])C(C)=O.[Na+] [IV, monosodium monomethylacetylphosphonate, reference compound] | 13/15 | 30 | – | – | – | – | – | – | – | – | – | – | – | – | – | hardening outcome (footnote to Tmax) [1]: not hardened; suitability for photohardening ([5]; Table 2, in words): unsuitable for photohardening |
